# Experimental data taken from patent US9540702B2, “Stabilization of enzymes with stable coenzymes” (Roche Diabetes Care, Inc., priority 2009, dated 2017).
# What was measured:
# [1] = Residual content of coenzyme in glucose detection reagent after storage at 32° C. and 85% relative air humidity; format: physicochemical; details: 24 weeks storage at 32° C. and 85% relative air humidity
# Experimental: (§1) carbaNAD (FIG. 1A) or NAD were added to the glucose-specific GlucDH. These formulations were each applied to Pokalon foils (Lonza) and, after drying, stored under warm and humid conditions (32° C., 85% relative air humidity). Subsequently, the reaction kinetics and the function curve were determined at regular intervals. In parallel at each of the measurement times a cNAD/NAD analysis and a determination of the residual activity of the enzyme were carried out.
# According to this the residual content of cNAD in a glucose detection reagent is still about 80% of the initial value after 24 weeks storage (at 32° C. and 85% relative air humidity), whereas the content of NAD in a glucose detection reagent stabilized with NAD is already reduced to about 35% of the initial value after 5 weeks and, by extrapolation, is reduced to zero after about 17 weeks.
# [2] = biological target: glucose dehydrogenase (GlucDH, wild-type) (Bacillus subtilis, UniProt P12310); assay: Residual activity of GlucDH stored dry on Pokalon foils with coenzyme at 32° C., 85% relative air humidity; format: biochemical
# Experimental: as §1
# The result of the determination of residual activity of the active enzyme GlucDH after 5 weeks at 32° C. and 85% relative air humidity (FIG. 7A) is completely surprising. The enzyme stabilized with NAD now only has an extremely low enzyme activity (0.5%), whereas the enzyme stabilized with cNAD still has a residual activity of 70% (in each case compared to the samples stored in a refrigerator (KS) with desiccant (TM)). After 24 weeks at 32° C. and 85% relative air humidity (FIG. 7B) the residual activity of the enzyme when stabilized with cNAD is still about 25%.
# [3] = biological target: GlucDH_E96G_E170K (GlucDH-mut1) (Bacillus subtilis, UniProt P12310, A229V/A236S/E170K/E96G/Q252K); assay: Residual activity of GlucDH mutant 1 after storage with coenzyme; format: biochemical; details: 24 weeks at 32° C. and 85% relative air humidity
# Experimental: as §1
# If a mutant is used instead of the wild-type enzyme (from Bacillus subtilis), it is possible to further increase the residual activity of GlucDH. After 24 weeks storage at 32° C. and 85% relative air humidity in the presence of cNAD, the residual activity of a mutant GlucDH_E96G_E170K with the amino acid substitutions glutamic acid→glycine at position 96 and glutamic acid→lysine at position 170 (GlucDH-mut1) of the wild-type enzyme is about 70%, whereas the residual activity of a mutant GlucDH_E170K_K252L with the amino acid substitutions glutamic acid→lysine at position 170 and lysine→leucine at position 252 (GlucDH-mut2) is about 50% (FIG. 8).
# [4] = biological target: glucose dehydrogenase (GlucDH) (Bacillus subtilis, UniProt P12310); assay: Stability of glucose dehydrogenase with coenzyme in a liquid phase at 50° C.; format: biochemical; details: 10 mg/ml GlucDH, 12 mg/ml coenzyme, pH 8.5
# Experimental: FIGS. 9A and 9B are graphical illustrations of the stability of glucose dehydrogenase in the presence of NAD or cNAD in a liquid phase at 50° C. for a period of 4 days (FIG. 9A) or 14 days (FIG. 9B) with test conditions of 10 mg/ml GlucDH; 12 mg/ml NAD or cNAD; buffer: 0.1 M Tris, 1.2 M NaCl, pH 8.5; temperature 50° C.
# After 95 hours at 50° C. the residual activity of glucose dehydrogenase in the presence of the native coenzyme NAD is […], whereas the residual activity of GlucDH in the presence of the artificial coenzyme cNAD is 75% (FIG. 9A). After 336 hours storage at 50° C. the residual activity of the enzyme stabilized with NAD is now only about 1%; a residual activity of still about 70% is observed for the enzyme stored in the presence of cNAD. The corresponding SDS gels also show a change in the GlucDH bands in the presence of the native coenzyme NAD: new bands are seen at higher molar masses and there is a shift in the 30 kDa band.
# diaphorase = assay: Diaphorase activity extracted from blood glucose test strips after storage; format: biochemical; details: blood glucose test strips stored at 32° C. and 30-70% relative air humidity
# Experimental: A composition which, among others, contained glucose dehydrogenase (GlucDH), carbaNAD, diaphorase, nitrosoaniline and phosphomolybdic acid was used to determine blood glucose. Test strips were obtained by applying a first formulation to a polycarbonate foil using a doctor blade (layer height 100 μm), drying the first layer, applying a second formulation to the first layer (doctor blade gap 30 μm), and drying the second layer. The test strips were stored at 32° C. and 30-70% relative air humidity.
# alcohol dehydrogenase = biological target: T1, alcohol dehydrogenase (Saccharomyces cerevisiae, UniProt P00330); assay: DSC of coenzyme binding; details: 3.8 mM ligand; 0.75M glycine sodium pyrophosphate, pH 9.0
# T1 sequence (P00330 1-348): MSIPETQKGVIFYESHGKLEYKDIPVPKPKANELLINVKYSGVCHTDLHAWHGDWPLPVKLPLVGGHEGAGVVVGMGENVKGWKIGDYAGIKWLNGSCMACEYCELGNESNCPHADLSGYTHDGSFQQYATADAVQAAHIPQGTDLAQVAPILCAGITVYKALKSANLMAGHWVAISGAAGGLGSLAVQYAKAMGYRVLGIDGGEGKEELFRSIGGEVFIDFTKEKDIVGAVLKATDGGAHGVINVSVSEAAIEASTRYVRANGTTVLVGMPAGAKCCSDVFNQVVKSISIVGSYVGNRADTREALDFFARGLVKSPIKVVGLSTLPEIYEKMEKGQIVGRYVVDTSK
# [5] = biological target: glucose dehydrogenase (wild-type) (Bacillus subtilis, UniProt P12310); assay: DSC of coenzyme binding; details: 3.8 mM ligand; 0.1 M Tris buffer, pH 8.5
# [6] = tested on: L-lactate dehydrogenase (porcine); assay: DSC of coenzyme binding; details: 3.8 mM ligand; 0.1 M Tris buffer, pH 8.5
# [7] = biological target: L lactate dehydrogenase (from rabbit) (Oryctolagus cuniculus, UniProt P13491); assay: DSC of coenzyme binding; details: 3.8 mM ligand; 0.1 M Tris buffer, pH 8.5
smiles,measurement,setting,value
NC(=O)c1ccc[n+]([C@@H]2C[C@H](COP(=O)([O-])OP(=O)(O)OC[C@H]3O[C@@H](n4cnc5c(N)ncnc54)[C@H](O)[C@@H]3O)[C@@H](O)[C@H]2O)c1 [carbaNAD],residual content of coenzyme in glucose detection reagent,[1],about 80 % of the initial value
same,residual activity of GlucDH,"[2]; 5 weeks at 32° C. and 85% relative air humidity, compared to samples stored in refrigerator with desiccant",70%
same,residual activity of GlucDH,[2]; 24 weeks at 32° C. and 85% relative air humidity,about 25%
same,residual activity of GlucDH-mut1,[3],about 70%
same,residual activity of glucose dehydrogenase,[4]; 95 hours at 50° C.,75%
same,residual activity of glucose dehydrogenase,[4]; 336 hours at 50° C.,about 70%
same,residual activity of diaphorase compared to formulation containing NAD,diaphorase,considerably increased residual activity
same,TM,alcohol dehydrogenase,55.4 °C
same,ΔHcal,alcohol dehydrogenase,310 kcal/mol
same,TM,[5],58.5 °C
same,ΔHcal,[5],84 kcal/mol
same,TM,[6],61.5 °C
same,ΔHcal,[6],82 kcal/mol
same,TM,[7],60.2 °C
same,ΔHcal,[7],66 kcal/mol
